Reference: patent publication US11976083B2, “Inhibitors of peptidylarginine deiminases” (Gilead Sciences, Inc., priority 2020, dated 2024)

Target: T1, human PAD4 (Homo sapiens, UniProt Q9UM07)
T1 construct: human PAD4 (NM_012387), A2-P663, was PCR amplified; His-SUMO (N, cleaved yes); made in house; host or cells: E. coli BL21(DE3)
Assay: In vitro PAD4 BAEE biochemical assay
Conditions: BAEE substrate 3 mM, 5 nM PAD4, 2 mM calcium chloride; geometric mean of multiple experiments
How it was run: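 Ammonia produced by BAEE deimination (3 mM substrate, 2 h, 25 °C) was read as fluorescent isoindole after o-phthalaldehyde/DTT derivatization, ex 405 nm/em 535 nm. Human PAD4 at 5 nM final, 2 mM calcium, pH 7.6 MOPS; compound preincubated 30 min. IC50s, normalized to BB-Cl-Amidine and DMSO controls, were geometric-mean averaged.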

T1 sequence (Q9UM07 2-663): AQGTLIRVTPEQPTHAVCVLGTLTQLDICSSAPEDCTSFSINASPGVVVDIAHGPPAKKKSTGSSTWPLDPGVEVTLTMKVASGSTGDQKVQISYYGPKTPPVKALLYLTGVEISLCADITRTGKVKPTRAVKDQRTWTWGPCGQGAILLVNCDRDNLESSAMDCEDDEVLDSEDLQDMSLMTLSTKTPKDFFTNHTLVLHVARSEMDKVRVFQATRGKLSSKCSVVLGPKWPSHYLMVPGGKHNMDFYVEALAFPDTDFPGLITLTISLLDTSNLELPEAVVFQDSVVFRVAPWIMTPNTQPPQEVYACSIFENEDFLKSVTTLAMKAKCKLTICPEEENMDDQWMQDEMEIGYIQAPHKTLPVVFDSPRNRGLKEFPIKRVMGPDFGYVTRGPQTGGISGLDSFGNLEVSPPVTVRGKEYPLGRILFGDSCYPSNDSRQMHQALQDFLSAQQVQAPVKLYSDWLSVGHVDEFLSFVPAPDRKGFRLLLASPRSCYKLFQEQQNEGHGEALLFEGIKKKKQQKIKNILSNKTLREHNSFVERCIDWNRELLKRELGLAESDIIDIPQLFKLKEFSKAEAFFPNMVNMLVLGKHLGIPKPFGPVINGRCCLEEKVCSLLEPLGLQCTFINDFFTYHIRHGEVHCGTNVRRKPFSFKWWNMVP

Compound | IC50 [nM]
COc1cc(C(=O)N2CCC[C@@H](N)C2)cc2nc(-c3cc4ccc5nc4n3CCCCCCCC(=O)N[C@@H]5C)c(C)n12 [Example 301, (11~{R})-17-[7-[(3~{R})-3-aminopiperidine-1-carbonyl]-5-methoxy-3-methyl-imidazo[1,2-a]pyridin-2-yl]-11-methyl-1,10,19-triazatricyclo[10.5.2.0^{15,18}]nonadeca-12(19),13,15(18),16-tetraen-9-one] | 36
COc1cc(C(=O)N2C[C@H]3CC[C@@H]2[C@@H]3N)cc2nc(-c3cc4ccc5nc4n3CCCCCCCC(=O)N[C@@H]5C)c(C)n12 [Example 302, (11~{R})-17-[7-[(1~{R},4~{R},7~{R})-7-amino-2-azabicyclo[2.2.1]heptane-2-carbonyl]-5-methoxy-3-methyl-imidazo[1,2-a]pyridin-2-yl]-11-methyl-1,10,19-triazatricyclo[10.5.2.0^{15,18}]nonadeca-12(19),13,15(18),16-tetraen-9-one] | 67
COc1cc(C(=O)N2CCC[C@@H](N)C2)cc2nc(-c3cc4ccc5nc4n3CCC3(CC3)COCCC(=O)N[C@@H]5C)c(C)n12 [Example 303, (11~{R})-17-[7-[(3~{R})-3-aminopiperidine-1-carbonyl]-5-methoxy-3-methyl-imidazo[1,2-a]pyridin-2-yl]-11-methyl-spiro[6-oxa-1,10,19-triazatricyclo[10.5.2.0^{15,18}]nonadeca-12(19),13,15(18),16-tetraene-4,1′-cyclopropane]-9-one] | 525
COc1cc(C(=O)N2CCC[C@@H](N)C2)cc2nc(-c3cc4ccc5nc4n3C[C@H]3C[C@H]3COCCC(=O)N[C@@H]5C)n(C)c12 [Example 304, (3~{S),5~{R},12~{R})-18-[5-[(3~{R})-3-aminopiperidine-1-carbonyl]-7-methoxy-1-methyl-benzimidazol-2-yl]-12-methyl-7-oxa-1,11,20-triazatetracyclo[11.5.2.0^{3,5}.0^{16,19}] icosa-13(20),14,16(19),17-tetraen-10-one] | 70
COc1cc(C(=O)N2CCC[C@@H](N)C2)cc2nc(-c3cc4ccc5nc4n3C[C@@H]3C[C@@H]3COCCC(=O)N[C@@H]5C)n(C)c12 [Example 305, (3~{R},5~{S},12~{R})-18-[5-[(3~{R})-3-aminopiperidine-1-carbonyl]-7-methoxy-1-methyl-benzimidazol-2-yl]-12-methyl-7-oxa-1,11,20-triazatetracyclo[11.5.2.0^{3,5).0^{16,19}] icosa-13(20),14,16(19),17-tetraen-10-one] | 65
COc1cc(C(=O)N2CCC[C@@H](N)C2)cc2nc(-c3cc4ccc5nc4n3CC[C@H]3C[C@H]3COCCC(=O)N[C@@H]5C)n(C)c12 [Example 306, (4~{R},6~{R},13~{R})-19-[5-[(3~{R})-3-aminopiperidine-1-carbonyl]-7-methoxy-1-methyl-benzimidazol-2-yl]-13-methyl-8-oxa-1,12,21-triazatetracyclo[12.5.2.0^{4,6}.0^{17,20}] henicosa-14(21),15,17(20),18-tetraen-11-one] | 85
COc1cc(C(=O)N2CCC[C@@H](N)C2)cc2nc(-c3cc4ccc5cc4n3CCCOC[C@H]3C[C@H]3C(=O)N[C@@H]5C)n(C)c12 [Example 307, (2~{R},5~{R},7~{S})-14-[5-[(3~{R})-3-aminopiperidine-1-carbonyl]-7-methoxy-1-methyl-benzimidazol-2-yl]-2-methyl-9-oxa-3,13-diazatetracyclo[11.5.2.0^{5,7}.0^{16,20}] icosa-1(19),14,16(20),17-tetraen-4-one] | 82
COc1cc(C(=O)N2CCC[C@@H](N)C2)cc2nc(-c3cc4ccc5nc4n3CCCOC[C@H]3C[C@H]3C(=O)N[C@@H]5C)n(C)c12 [Example 308, (2~{R},5~{R},7~{S})-14-[5-[(3~{R})-3-aminopiperidine-1-carbonyl]-7-methoxy-1-methyl-benzimidazol-2-yl]-2-methyl-9-oxa-3,13,19-triazatetracyclo[11.5.2.0^{5,7}.0^{16,20}] icosa-1(19),14,16(20),17-tetraen-4-one] | 72
COc1cc(C(=O)N2CCC[C@@H](N)C2)cc2nc(-c3cc4ccc5nc4n3CCCOC[C@@H]3C[C@@H]3C(=O)N[C@@H]5C)n(C)c12 [Example 309, (2~{R},5~{S},7~{R})-14-[5-[(3~{R})-3-aminopiperidine-1-carbonyl]-7-methoxy-1-methyl-benzimidazol-2-yl]-2-methyl-9-oxa-3,13,19-triazatetracyclo[11.5.2.0^{5,7}.0^{16,20}] icosa-1(19),14,16(20),17-tetraen-4-one] | 1380
COc1cc(C(=O)N2CCC[C@@H](N)C2)cc2nc(-c3cc4ccc5nc4n3C[C@H]3C[C@H]3COCC(C)(C)C(=O)N[C@@H]5C)n(C)c12 [Example 310, (3~{S},5~{R},12~{R})-18-[5-[(3~{R})-3-aminopiperidine-1-carbonyl]-7-methoxy-1-methyl-benzimidazol-2-yl]-9,9,12-trimethyl-7-oxa-1,11,20-triazatetracyclo[11.5.2.0^{3,5}.0^{16,19}] icosa-13(20),14,16(19),17-tetraen-10-one] | 135
COc1cc(C(=O)N2CCC[C@@H](N)C2)cc2nc(-c3cc4ccc5nc4n3C[C@H]3C[C@H]3COCC3(CC3)C(=O)N[C@@H]5C)n(C)c12 [Example 311, (3~{S],5~{R},12~{R})-18-[5-[(3~{R})-3-aminopiperidine-1-carbonyl]-7-methoxy-1-methyl-benzimidazol-2-yl]-12-methyl-spiro[7-oxa-1,11,20-triazatetracyclo[11.5.2.0^{3,5}.0^{16,19}]icosa-13(20),14,16(19),17-tetraene-9,1′-cyclopropane]-10-one] | 175
COc1cc(C(=O)N2CC[C@@H](OC)[C@@H](N)C2)cc2nc(-c3cc4ccc5nc4n3C[C@H]3C[C@H]3COCCC(=O)N[C@@H]5C)n(C)c12 [Example 314, (3~{S),5~{R},12~{R})-18-[5-[(3~{S},4~{R})-3-amino-4-methoxy-piperidine-1-carbonyl]-7-methoxy-1-methyl-benzimidazol-2-yl]-12-methyl-7-oxa-1,11,20-triazatetracyclo[11.5.2.0^{3,5}.0^{16,19}] icosa-13(20),14,16(19),17-tetraen-10-one] | 156
COc1cc(C(=O)N[C@H]2CNCC[C@@H]2F)cc2nc(-c3cc4ccc5nc4n3C[C@H]3C[C@H]3COCCC(=O)N[C@@H]5C)n(C)c12 [Example 315, ~{N}-[(3~{S},4~{S})-4-fluoro-3-piperidyl]-7-methoxy-1-methyl-2-[(3~{S},5~{R},12~{R})-12-methyl-10-oxo-7-oxa-1,11,20-triazatetracyclo[11.5.2.0^{3,5}.0^{16,19}]icosa-13(20),14,16(19),17-tetraen-18-yl]benzimidazole-5-carboxamide] | 45
COc1cc(C(=O)N2[C@H]3CC[C@@H]2[C@H](N)C3)cc2nc(-c3cc4ccc5nc4n3CCCCCCCC(=O)N[C@@H]5C)c(C)n12 [Example 316, (11˜{R})-17-[7-[(1˜{R},2˜{R},4˜{S})-2-amino-7-azabicyclo[2.2.1]heptane-7-carbonyl]-5-methoxy-3-methyl-imidazo[1,2-a]pyridin-2-yl]-11-methyl-1,10,19-triazatricyclo[10.5.2.0^{15,18}]nonadeca-12(19),13,15(18),16-tetraen-9-one] | 14
COc1cc(C(=O)N2[C@H]3CC[C@@H]2[C@H](N)C3)cc2nc(-c3cc4ccc5nc4n3CCCCCCC(=O)N[C@@H]5C)c(C)n12 [Example 317, (10~{R})-16-[7-[(1~{R},2~{R},4~{S})-2-amino-7-azabicyclo[2.2.1]heptane-7-carbonyl]-5-methoxy-3-methyl-imidazo[1,2-a]pyridin-2-yl]-10-methyl-1,9,18-triazatricyclo[9.5.2.0^{14,17}]octadeca-11(18),12,14(17),15-tetraen-8-one] | 16
COc1cc(C(=O)N2[C@H]3CC[C@@H]2[C@H](N)C3)cc2nc(-c3cc4ccc5nc4n3CCCCCCCCC(=O)N[C@@H]5C)c(C)n12 [Example 318, (12~{R})-18-[7-[(1~{R},2~{R},4~{S})-2-amino-7-azabicyclo[2.2.1]heptane-7-carbonyl]-5-methoxy-3-methyl-imidazo[1,2-a]pyridin-2-yl]-12-methyl-1,11,20-triazatricyclo[11.5.2.0^{16,19}]icosa-13(20),14,16(19),17-tetraen-10-one] | 18
COc1cc(C(=O)N2[C@H]3CC[C@@H]2[C@H](N)C3)cc2nc(-c3cc4ccc5nc4n3CCCCCCCC(=O)N(C)[C@@H]5C)c(C)n12 [Example 319, (11~{R})-17-[7-[(1~{R},2~{R},4~{S})-2-amino-7-azabicyclo[2.2.1]heptane-7-carbonyl]-5-methoxy-3-methyl-imidazo[1,2-a]pyridin-2-yl]-10,11-dimethyl-1,10,19-triazatricyclo[10.5.2.0^{15,18}]nonadeca-12(19),13,15(18),16-tetraen-9-one] | 266
COc1cc(C(=O)N2[C@H]3CC[C@@H]2[C@H](N)C3)cc2nc(-c3cc4ccc5nc4n3CCCCCC(=O)N[C@@H]5C)c(C)n12 [Example 320, (9~{R})-15-[7-[(1~{R},2~{R},4~{S})-2-amino-7-azabicyclo[2.2.1]heptane-7-carbonyl]-5-methoxy-3-methyl-imidazo[1,2-a]pyridin-2-yl]-9-methyl-1,8,17-triazatricyclo[8.5.2.0^{13,16}]heptadeca-10(17),11,13(16),14-tetraen-7-one] | 17
COc1cc(C(=O)N2[C@H]3CC[C@@H]2[C@H](N)C3)cc2nc(-c3cc4ccc5nc4n3CCCCOCCC(=O)N[C@@H]5C)c(C)n12 [Example 321, (11~{R})-17-[7-[(1~{R},2~{R},4~{S})-2-amino-7-azabicyclo[2.2.1]heptane-7-carbonyl]-5-methoxy-3-methyl-imidazo[1,2-a]pyridin-2-yl]-11-methyl-6-oxa-1,10,19-triazatricyclo[10.5.2.0^{15,18}]nonadeca-12(19),13,15(18),16-tetraen-9-one] | 32
